Laboratory results: patent US11542239B2, “Elagolix sodium compositions and processes” (AbbVie Inc., priority 2018, dated 2023)

What was measured:
Type in all cases: physicochemical
[1] = Flow properties, Schulze ring shear tester (flow function coefficient); conditions: isolated amorphous elagolix sodium powder, ffc=σ/fc
Procedure: Flow properties of each sample were characterized using a Schulze ring shear tester RST-XS (Dietmar Schulze Schuttgutmesstechnik, Wolfenbiittel, Germany). A standard annular cell of a cross-sectional area of 24 cm^2 and a volume of 30 cm^3 is used to measure the yield loci. All experiments were performed under ambient conditions immediately after the sample was removed from the sample container. During each measurement, the powder sample was first pre-sheared under a pre-consolidation stress of 1 kPa until a steady-state was reached. The pre-sheared powder was then subjected to shear under four normal stress levels of […] to obtain the yield locus (plot of shear stress at failure as a function of the normal stress). Between each shear points, the sample was pre-consolidated at 1 kPa. From the yield locus, the major principle stress (σ) and unconfined yield strength (fc) were derived by drawing two critical Mohr stress circles with the software RST-CONTROL 95 (Dietmar Schulze Schuttgiit-messtechnik, Wolfenbiittel, Germany). The major principle stress (σ) was obtained from the Mohr stress circle which is tangential to the yield locus and intersects at the point of normal and shear stresses at steady state flow. The unconfined yield strength (fc) was obtained from the Mohr stress circle which is tangential to the yield locus and runs through the origin. Flow function coefficient (ffc=σ/fc) was used to characterize the flow of the powder sample.

[2] = Particle size distribution by laser diffraction (wet dispersion); conditions: isolated amorphous elagolix sodium powder
Procedure: Particle size distribution was measured by laser diffraction using a Malvern Mastersizer 2000S (Malvern Panalytical Ltd., Malvern, United Kingdom) in the wet dispersion mode. The liquid dispersion accessory was first filled with a solution of 0.025% w/v lecithin in HPLC n-heptane. After laser background intensity was measured, approximately 40 mg of sample was added directly to the liquid dispersion accessory to obtain a target laser obscuration between 5 and 22%. Particle size distribution measurement was started immediately upon addition of the sample. The following method parameters were used: Calculation theory—Mie; Measurement model—general purpose; Measurement sensitivity—normal; Dispersant refractive index—1.39; Background time—30 s; Measurement time—30 s; Stirrer speed—1500 rpm; Measurement cycle—1.

[3] = Dry glass transition temperature of amorphous form
[4] = Bulk density in a graduated cylinder; conditions: isolated amorphous elagolix sodium powder
Procedure: The bulk density of the sample was obtained by measurement in a graduated cylinder. A 50 mL graduated cylinder (readable to 1 mL) was used in all measurement. First, the tared weight of the cylinder was obtained with a balance (readable to ±0.01 g). Sufficient amount of sample was then transferred into the cylinder, gently to avoid compaction of the sample, to a volume between 30 and 50 mL. The total weight of the sample and cylinder was then measured with the balance (readable to ±0.01 g), and the net sample weight was calculated. The bulk density is the weight of the sample divided by the apparent volume (to the nearest graduated unit).

[5] = BET specific surface area from nitrogen adsorption isotherm; conditions: isolated amorphous elagolix sodium powder, precipitation/isolation conditions vary per example
Procedure: The BET (Brunauer, Emmett and Teller) specific surface area was determined from nitrogen adsorption isotherm at 77° K using a surface area analyzer (Tristar 3020, Micromeritics, Norcross, Ga.). A sample of approximately 1-2 g was first outgassed under vacuum for 2 hours at 50° C. prior to nitrogen adsorption experiment. The multipoint measurement method was used according to USP <846>. The quantity adsorbed was measured between 0.05 and 0.3 relative pressure. A minimum of 5 data points between this pressure range was determined to obtain the specific surface area using the BET equation.

flow function coefficient (ffc) ([1]; listed as Example 14): 1.8
flow function coefficient (ffc) ([1]; listed as Example 15): 2.8
flow function coefficient (ffc) ([1]; listed as Example 17): 1.2
flow function coefficient (ffc) ([1]; listed as Example 18): 6.8
volume-averaged particle size Dv10 ([2]; listed as Example 14): 9 μm
volume-averaged particle size Dv10 ([2]; listed as Example 15): 17 μm
volume-averaged particle size Dv10 ([2]; listed as Example 17): 6 μm
volume-averaged particle size Dv10 ([2]; listed as Example 18): 204 μm
dry glass transition temperature (Tg) [3]: about 108 °C
bulk density ([4]; listed as Example 17): 0.17 g/mL
bulk density ([4]; listed as Example 18): 0.33 g/mL
specific surface area ([5]; listed as Example 14): 10.4 m^2/g
specific surface area ([5]; listed as Example 15): 49.0 m^2/g
specific surface area ([5]; listed as Example 16): 0.3 m^2/g
specific surface area ([5]; listed as Example 17): 35.3 m^2/g
specific surface area ([5]; listed as Example 18): 32.2 m^2/g
Structure (SMILES): COc1cccc(-c2c(C)n(Cc3c(F)cccc3C(F)(F)F)c(=O)n(C[C@H](NCCCC(=O)[O-])c3ccccc3)c2=O)c1F.[Na+] [Compound (I), sodium 4-({(1R)-2-[5-(2-fluoro-3-methoxyphenyl)-3-{[2-fluoro-6-(trifluoromethyl)phenyl]methyl}-4-methyl-2,6-dioxo-3,6-dihydropyrimidin-1(2H)-yl]-1-phenylethyl}amino)butanoate]
